The source made the active and inactive calls.

Test [1] addresses T1, Sentrin-specific protease 8 (Homo sapiens, UniProt Q96LD8).
T1 sequence (Q96LD8 whole entry): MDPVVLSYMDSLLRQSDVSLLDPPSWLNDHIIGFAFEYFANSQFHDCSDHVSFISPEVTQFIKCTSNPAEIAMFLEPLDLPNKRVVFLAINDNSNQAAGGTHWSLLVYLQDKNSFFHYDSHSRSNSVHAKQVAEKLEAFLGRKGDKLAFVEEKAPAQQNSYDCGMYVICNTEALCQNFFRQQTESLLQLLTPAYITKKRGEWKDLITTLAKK
Type of test: functional.

The target of test [2] is T1, Sentrin-specific protease 8. Type of test: functional. The source holds these as a separate data set.
In test [3] the target is T2, Replicative DNA helicase DnaB (Mycobacterium tuberculosis, UniProt P9WMR3).
T2 sequence (P9WMR3 whole entry): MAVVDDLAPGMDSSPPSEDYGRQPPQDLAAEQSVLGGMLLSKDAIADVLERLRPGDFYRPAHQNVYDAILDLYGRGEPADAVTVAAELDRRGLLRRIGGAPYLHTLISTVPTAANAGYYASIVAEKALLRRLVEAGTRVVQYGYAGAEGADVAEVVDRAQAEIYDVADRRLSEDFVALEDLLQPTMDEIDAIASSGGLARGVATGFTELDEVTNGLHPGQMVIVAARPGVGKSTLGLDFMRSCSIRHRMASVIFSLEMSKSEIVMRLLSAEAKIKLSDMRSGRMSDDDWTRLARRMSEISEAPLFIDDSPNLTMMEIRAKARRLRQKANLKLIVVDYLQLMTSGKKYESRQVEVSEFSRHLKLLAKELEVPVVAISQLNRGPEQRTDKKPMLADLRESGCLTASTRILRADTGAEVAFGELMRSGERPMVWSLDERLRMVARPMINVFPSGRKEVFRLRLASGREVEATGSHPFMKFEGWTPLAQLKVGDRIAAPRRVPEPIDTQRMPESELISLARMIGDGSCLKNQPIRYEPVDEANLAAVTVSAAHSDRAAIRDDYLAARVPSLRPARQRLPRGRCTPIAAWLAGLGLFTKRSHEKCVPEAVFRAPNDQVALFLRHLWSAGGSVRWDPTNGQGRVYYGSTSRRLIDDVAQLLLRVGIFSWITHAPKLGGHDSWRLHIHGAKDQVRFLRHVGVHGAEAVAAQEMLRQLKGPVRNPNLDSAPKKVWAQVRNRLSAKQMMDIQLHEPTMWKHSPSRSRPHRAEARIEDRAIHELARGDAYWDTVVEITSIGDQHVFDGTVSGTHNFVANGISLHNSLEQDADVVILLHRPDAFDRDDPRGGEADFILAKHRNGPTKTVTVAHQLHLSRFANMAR
Kind of test: DnaB intein splicing inhibitors, dose response, biochemical, cell-free fluorescence (AID 449749). Type of test: functional.

Test [4] has as its target T3, Tyrosyl-DNA phosphodiesterase 2 (Homo sapiens, UniProt O95551).
T3 sequence (O95551 whole entry): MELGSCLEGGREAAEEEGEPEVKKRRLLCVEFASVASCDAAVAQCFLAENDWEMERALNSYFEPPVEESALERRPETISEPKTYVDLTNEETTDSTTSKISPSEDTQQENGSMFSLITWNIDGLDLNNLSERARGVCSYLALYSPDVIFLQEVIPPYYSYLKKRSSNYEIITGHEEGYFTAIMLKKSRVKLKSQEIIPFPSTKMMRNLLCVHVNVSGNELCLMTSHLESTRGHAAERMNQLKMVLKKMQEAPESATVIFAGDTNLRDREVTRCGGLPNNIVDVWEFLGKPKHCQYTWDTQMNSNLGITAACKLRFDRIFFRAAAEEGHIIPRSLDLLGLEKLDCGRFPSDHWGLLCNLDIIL
In words: human TDP2 enzyme inhibitors, dose response, biochemical, epi absorbance, IC50 (AID 743297).

Test [5] deals with Disintegrin and metalloproteinase domain-containing protein 17 (Homo sapiens, UniProt P78536). In words: exosite inhibitors of ADAM17, dose response, biochemical (AID 743260).
Sequence of Disintegrin and metalloproteinase domain-containing protein 17 (P78536 whole entry, the tested form may be a part): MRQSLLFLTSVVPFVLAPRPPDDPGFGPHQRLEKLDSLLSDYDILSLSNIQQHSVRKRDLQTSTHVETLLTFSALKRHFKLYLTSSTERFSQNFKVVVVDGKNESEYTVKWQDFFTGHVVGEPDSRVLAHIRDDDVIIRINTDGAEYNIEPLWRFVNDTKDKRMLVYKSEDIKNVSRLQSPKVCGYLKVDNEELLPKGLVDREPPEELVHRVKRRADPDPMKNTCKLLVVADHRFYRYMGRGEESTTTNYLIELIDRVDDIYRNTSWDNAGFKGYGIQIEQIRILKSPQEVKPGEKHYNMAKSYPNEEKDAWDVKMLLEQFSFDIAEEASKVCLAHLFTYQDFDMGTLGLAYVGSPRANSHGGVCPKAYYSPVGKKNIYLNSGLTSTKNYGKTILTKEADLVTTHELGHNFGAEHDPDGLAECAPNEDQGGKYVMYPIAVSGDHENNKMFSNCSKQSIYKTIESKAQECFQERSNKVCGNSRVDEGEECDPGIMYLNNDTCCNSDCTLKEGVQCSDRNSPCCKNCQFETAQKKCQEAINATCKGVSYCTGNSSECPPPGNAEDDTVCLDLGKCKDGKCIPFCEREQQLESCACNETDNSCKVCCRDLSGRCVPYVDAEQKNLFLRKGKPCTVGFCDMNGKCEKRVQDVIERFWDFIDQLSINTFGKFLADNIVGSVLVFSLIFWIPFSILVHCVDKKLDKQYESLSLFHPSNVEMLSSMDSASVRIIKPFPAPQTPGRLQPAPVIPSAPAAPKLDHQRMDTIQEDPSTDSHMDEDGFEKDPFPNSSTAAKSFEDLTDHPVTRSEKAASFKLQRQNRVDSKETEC
Test [6] in a line: ADAM10 protease inhibitors, dose response, selectivity assay for ADAM17 exosite inhibitor project, biochemical, FRET peptide substrate, recombinant human ADAM10 (AID 743259).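 Note: ADAM10 enzyme cleaving a FRET peptide substrate.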
The target of test [7] is T4, Heat shock factor protein 1 (Mus musculus, UniProt P38532).
T4 sequence (P38532 whole entry): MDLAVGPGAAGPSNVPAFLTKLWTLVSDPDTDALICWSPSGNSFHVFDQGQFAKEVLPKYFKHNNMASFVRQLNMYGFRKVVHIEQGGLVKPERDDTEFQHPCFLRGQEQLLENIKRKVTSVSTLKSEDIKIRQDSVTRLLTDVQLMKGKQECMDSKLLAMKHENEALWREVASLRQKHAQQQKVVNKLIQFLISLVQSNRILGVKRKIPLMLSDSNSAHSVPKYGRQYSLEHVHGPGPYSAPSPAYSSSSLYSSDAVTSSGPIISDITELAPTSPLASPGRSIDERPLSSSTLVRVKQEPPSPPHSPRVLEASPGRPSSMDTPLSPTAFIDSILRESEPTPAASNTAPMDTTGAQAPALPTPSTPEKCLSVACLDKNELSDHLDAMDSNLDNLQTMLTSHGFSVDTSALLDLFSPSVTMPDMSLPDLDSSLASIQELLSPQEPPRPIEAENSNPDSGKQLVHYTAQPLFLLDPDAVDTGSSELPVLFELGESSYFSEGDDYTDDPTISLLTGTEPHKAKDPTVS
In words: HSF1 potentiators in luciferase reporter cells, confirmation, cell-based, NIH3T3, luminescence, dose retest (AID 435004).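 Note: stress induced by proteasome inhibitor MG132 added 30 min after compound; luciferase reporter driven by HSF1 response element in NIH3T3 cells; actives raise luminescence as potentiators of the MG132 stress response.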 Type of test: functional.

For another test, the target named is T5, Caspase-3 (Homo sapiens, UniProt P42574).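 Note: Dose-response selectivity test against caspase-3 for candidate inhibitors of sentrin-specific proteases (SENPs).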
T5 sequence (P42574 whole entry): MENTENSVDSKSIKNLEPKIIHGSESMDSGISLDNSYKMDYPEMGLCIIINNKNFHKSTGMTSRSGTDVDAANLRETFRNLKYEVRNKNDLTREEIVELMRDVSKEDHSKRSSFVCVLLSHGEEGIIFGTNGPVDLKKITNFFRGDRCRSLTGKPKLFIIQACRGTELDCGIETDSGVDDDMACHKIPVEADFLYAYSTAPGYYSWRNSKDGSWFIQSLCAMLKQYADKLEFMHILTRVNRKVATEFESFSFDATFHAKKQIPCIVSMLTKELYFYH
Type of test: functional.

The target of test [8] is T6, Sentrin-specific protease 6 (Homo sapiens, UniProt Q9GZR1).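 Note: Luminescence-based dose-response confirmatory assay of SENP6 inhibition, following up an ultra-high-throughput screen.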
T6 sequence (Q9GZR1 whole entry): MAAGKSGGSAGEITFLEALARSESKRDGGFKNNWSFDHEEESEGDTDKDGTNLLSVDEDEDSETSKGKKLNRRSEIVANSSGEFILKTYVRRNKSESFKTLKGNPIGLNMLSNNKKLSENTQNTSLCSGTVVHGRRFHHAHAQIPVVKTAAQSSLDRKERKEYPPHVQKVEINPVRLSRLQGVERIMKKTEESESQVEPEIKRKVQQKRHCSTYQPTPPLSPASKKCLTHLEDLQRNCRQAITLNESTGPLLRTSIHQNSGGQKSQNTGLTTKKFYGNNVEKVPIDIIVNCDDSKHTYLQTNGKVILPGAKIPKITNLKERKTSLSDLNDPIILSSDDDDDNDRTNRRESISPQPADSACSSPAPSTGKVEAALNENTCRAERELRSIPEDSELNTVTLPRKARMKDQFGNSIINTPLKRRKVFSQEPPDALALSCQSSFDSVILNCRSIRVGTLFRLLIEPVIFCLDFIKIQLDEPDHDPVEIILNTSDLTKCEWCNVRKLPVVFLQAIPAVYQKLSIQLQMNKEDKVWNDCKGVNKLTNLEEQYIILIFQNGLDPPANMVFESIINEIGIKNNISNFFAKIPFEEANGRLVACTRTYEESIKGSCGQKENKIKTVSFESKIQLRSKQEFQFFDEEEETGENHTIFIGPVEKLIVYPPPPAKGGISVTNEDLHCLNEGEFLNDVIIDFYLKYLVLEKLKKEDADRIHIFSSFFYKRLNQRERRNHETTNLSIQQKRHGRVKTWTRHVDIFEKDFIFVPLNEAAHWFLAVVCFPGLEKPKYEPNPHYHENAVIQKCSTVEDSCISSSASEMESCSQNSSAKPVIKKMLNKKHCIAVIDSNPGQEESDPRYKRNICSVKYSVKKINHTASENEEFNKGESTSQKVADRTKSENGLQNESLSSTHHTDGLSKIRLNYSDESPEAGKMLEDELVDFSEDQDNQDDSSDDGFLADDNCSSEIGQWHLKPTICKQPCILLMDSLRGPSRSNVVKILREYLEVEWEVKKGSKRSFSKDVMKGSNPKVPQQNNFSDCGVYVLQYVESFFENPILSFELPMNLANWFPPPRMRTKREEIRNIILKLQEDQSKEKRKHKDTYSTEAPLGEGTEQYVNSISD
Type of test: functional.

The target of test [9] is T1, Sentrin-specific protease 8. It is filed as functional. The source holds these as a separate data set.
In another test the test system is INS1. In words: beta cell apoptosis inhibitors, cytokine rescue, dose response, luminescence, retest (AID 449756).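 Note: cell death triggered by IL-1 beta plus TNF-alpha plus IFN-gamma mixture; protective hits raise ATP signal compared with cytokine alone wells.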 The conditions noted are these: Rattus norvegicus. It is filed as functional, cell-based.
The target of test [10] is T7, Sentrin-specific protease 7 (Homo sapiens, UniProt Q9BQF6).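 Note: Luminescence-based dose-response confirmation of ultra-high-throughput screening hits, measuring inhibition of SENP7.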
T7 sequence (Q9BQF6 whole entry): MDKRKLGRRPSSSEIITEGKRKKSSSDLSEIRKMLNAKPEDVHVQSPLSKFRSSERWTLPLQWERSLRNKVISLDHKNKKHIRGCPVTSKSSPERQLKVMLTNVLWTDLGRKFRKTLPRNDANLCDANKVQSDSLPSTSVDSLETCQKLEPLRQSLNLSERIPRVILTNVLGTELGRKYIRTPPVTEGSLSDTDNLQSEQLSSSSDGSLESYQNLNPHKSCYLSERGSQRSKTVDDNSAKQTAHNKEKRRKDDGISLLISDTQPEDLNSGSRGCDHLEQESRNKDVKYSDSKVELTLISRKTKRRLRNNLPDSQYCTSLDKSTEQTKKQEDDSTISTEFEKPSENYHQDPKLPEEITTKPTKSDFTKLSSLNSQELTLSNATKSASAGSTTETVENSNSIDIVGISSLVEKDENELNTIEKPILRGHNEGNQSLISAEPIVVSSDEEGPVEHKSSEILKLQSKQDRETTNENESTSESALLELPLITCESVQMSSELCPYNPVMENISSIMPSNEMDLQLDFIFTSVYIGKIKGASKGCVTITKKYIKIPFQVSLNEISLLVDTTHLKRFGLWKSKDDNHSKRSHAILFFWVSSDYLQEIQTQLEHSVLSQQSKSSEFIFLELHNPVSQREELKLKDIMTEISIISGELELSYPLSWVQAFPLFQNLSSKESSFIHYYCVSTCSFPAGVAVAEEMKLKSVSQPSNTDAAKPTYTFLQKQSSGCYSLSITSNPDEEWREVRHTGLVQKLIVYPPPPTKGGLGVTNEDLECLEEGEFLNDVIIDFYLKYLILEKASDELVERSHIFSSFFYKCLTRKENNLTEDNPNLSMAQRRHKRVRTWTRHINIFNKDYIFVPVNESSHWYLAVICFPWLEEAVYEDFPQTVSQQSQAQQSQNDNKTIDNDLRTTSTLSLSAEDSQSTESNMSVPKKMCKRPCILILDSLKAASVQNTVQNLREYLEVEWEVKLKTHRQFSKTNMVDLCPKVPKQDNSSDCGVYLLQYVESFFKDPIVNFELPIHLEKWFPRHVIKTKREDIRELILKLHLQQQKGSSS
It is filed as functional.

A short description of test [11]: microbe, parasite or virus in culture. It is filed as functional. Conditions: Mycobacterium tuberculosis.
For test [12], the target named is Endoplasmic reticulum aminopeptidase 1 (Homo sapiens, UniProt Q9NZ08). In words: ERAP1 aminopeptidase inhibitors, dose response, biochemical, cherry-pick, set 2, plate reader (AID 743314).
Sequence of Endoplasmic reticulum aminopeptidase 1 (Q9NZ08 whole entry): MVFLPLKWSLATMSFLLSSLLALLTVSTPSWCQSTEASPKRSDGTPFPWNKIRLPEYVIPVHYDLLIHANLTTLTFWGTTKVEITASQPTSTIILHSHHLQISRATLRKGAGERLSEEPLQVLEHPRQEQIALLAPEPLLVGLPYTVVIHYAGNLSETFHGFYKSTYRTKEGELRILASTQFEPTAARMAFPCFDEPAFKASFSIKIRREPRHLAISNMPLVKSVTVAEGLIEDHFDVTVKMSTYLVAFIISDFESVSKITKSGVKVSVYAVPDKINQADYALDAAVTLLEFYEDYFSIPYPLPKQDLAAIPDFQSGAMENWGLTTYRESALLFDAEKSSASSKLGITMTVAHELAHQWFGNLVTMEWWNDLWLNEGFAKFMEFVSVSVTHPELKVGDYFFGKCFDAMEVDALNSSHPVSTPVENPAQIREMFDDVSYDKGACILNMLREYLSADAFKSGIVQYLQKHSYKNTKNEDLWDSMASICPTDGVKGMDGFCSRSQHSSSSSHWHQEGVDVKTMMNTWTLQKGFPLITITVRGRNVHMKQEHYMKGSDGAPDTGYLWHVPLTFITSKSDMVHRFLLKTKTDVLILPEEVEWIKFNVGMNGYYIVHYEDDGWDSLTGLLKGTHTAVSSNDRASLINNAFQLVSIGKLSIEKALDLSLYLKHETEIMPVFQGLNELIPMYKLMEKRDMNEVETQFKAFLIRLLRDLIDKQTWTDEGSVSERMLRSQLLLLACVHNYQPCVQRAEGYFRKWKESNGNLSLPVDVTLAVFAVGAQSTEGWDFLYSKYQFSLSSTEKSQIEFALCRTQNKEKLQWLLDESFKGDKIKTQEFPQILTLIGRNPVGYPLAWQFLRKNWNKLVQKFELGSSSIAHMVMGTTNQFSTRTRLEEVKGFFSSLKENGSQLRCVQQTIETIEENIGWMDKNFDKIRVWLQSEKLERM
The target of a further test is T8, Caspase-6 (Homo sapiens, UniProt P55212).
T8 sequence (P55212 whole entry): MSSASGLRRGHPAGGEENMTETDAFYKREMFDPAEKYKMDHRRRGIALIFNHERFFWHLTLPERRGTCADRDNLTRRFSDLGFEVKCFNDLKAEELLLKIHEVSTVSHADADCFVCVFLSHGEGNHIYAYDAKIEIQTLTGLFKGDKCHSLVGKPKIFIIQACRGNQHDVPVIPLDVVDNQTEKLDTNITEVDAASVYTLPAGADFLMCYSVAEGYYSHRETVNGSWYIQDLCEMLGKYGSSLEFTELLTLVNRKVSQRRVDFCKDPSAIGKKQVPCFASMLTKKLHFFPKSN
In words: human caspase-6 inhibitors, dose response, biochemical, VEID-R110 fluorescence, cherry-pick (AID 720632).

Take `Nc1ccc(N2CCOCC2)c2nonc12`: the values for the IC50 in [1], in [2] and in [4] were 3.67 µM (active), 2.98 µM (active) and > 128 µM (inactive), respectively. Besides, the AC50 in test [3] was 18.8 µM (active).
As for `Clc1ccc(OCCOCCOc2cccc3cccnc23)c(Br)c1`, the IC50 in [5] and in [6] was > 69.5 µM (inactive) throughout.
`COc1ccc(NC(C)C(=O)N/N=C/c2ccccc2OCc2ccc(Br)cc2)cc1` (centres undefined): the IC50 in test [5] and in test [6] was > 69.5 µM (inactive) throughout.
With `S=C(Nc1ccc(Cl)cc1)Nc1cccc2cnccc12`, the EC50 in test [7] is > 260 µM (inactive). Moreover, the IC50 is 11.7 µM (active) at Caspase-3; 2.87 µM (active) in test [8]; 5.49 µM (active) in [9]; 130 µM (inactive) in test [4]; 6.24 µM (active) in test [10]. For the same compound, the AC50 in the test on INS1 is > 260 µM (inactive). Moreover, the CC50 in test [11] is > 40 µM (active).
Consider `CC(=O)N1[C@@H]2c3ccc(/C=C/c4ccccc4)c(=O)n3C[C@H]1[C@H](CO)[C@H]2C(=O)N(C)C`, for which, in test [12], the AC50 was 4.5 µM (active).
With `Cc1ccc(NC(=O)c2cc(S(=O)(=O)NCC3CCCO3)ccc2F)cc1` (centres undefined), the AC50 on Caspase-6 was 45.9 µM (active).
Regarding `CN1[C@@H]2Cn3c(ccc(/C=C/c4ccccc4)c3=O)[C@H]1[C@@H](C(=O)NC1CCCC1)[C@@H]2CO`, the AC50 in [12] was 9.03 µM (active).

The values above are taken from ChEMBL document CHEMBL1201862, “PubChem BioAssay data set” (2004).
